Values of other authors as cited in patent US20040228830A1 (Collegium Pharmaceutical, Inc., priority 2003, published 2004).

Experiments:
[1] = 75-100 mg/day twice daily for 8 weeks, elderly patients with depression
[2] = intravenous, 10 patients
uptake of dopamine = uptake of dopamine (Homo sapiens, UniProt Q01959)
[3] = test system: beta adrenoceptors in rat cortex; details: after chronic administration
[4] = metabolism in the liver
[5] = 200 mg/day
[6] = after one week of dose escalation
[7] = human, in vivo

Chain of uptake of dopamine (Q01959 whole entry): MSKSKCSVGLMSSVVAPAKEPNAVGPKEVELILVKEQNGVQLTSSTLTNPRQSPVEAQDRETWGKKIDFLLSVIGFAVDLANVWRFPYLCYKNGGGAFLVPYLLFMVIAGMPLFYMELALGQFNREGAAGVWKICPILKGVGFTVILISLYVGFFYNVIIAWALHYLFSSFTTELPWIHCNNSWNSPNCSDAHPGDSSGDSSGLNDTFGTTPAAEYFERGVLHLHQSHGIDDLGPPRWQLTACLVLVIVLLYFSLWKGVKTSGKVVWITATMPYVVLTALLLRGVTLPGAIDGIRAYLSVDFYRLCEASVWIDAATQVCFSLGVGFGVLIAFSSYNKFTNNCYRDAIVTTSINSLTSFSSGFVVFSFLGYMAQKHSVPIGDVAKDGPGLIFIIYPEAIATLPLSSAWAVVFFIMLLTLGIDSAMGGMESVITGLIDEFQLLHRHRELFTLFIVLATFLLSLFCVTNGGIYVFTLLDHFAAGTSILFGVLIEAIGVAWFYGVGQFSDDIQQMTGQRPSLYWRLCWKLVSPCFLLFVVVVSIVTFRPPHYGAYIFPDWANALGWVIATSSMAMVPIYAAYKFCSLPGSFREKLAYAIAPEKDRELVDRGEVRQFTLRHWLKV

CCN(CC)C(=O)C1(c2ccccc2)CC1CN (stereo not shown) [milnacipran, Milnacipran]
only adverse event reported more frequently for milnacipran recipients than for imipramine recipients [1]: nausea | patients reporting transient nausea [2]: five | effect on the uptake of dopamine (uptake of dopamine): does not affect | effect on the number of beta adrenoceptors in rat cortex [3]: does not affect | number of chemically identified metabolites [4]: ten | antidepressant efficacy versus lower doses [5]: superior to the lower doses | most common dose-related side effect reported by patients (four weeks dose escalation): nausea | pain improvement (twice-a-day administration of immediate release formulation, fibromyalgia): statistically superior to that of placebo treatment | most commonly reported reason for discontinuation of treatment because of adverse effects [6]: nausea and vomiting | toxicity in humans [7]: non-toxic
